Results taken from ChEMBL document CHEMBL4346753, “Towards multi-target antidiabetic agents: Discovery of biphenyl-benzimidazole conjugates as AMPK activators” (Bioorg Med Chem Lett, 2019).
Calls of active or inactive are those of the source. No cut-off for these calls is given here.

What was measured:
[1] = Inhibition of AGE formation assessed as reduction in bovin serum albumin glycation at 1 mM incubated for 24 hrs in presence of glucose by spectrophotometric analysis relative to control; type: functional
[2] = species on record: Rattus norvegicus; assay: Antagonist activity at AT1 receptor in rat portal vein assessed as reduction in […] contraction at 10 uM incubated for 1 min relative to control; parameters: scale not given: the % may be the effect or the level left
[3] = biological target: T1, AMP-activated protein kinase (AMPK) alpha-1/beta-1/gamma-1 (Homo sapiens) (UniProt P54619+Q9Y478+Q13131); assay: Activation of C-terminal His tagged human recombinant full length AMPK alpha1/beta1/gamma1 expressed in baculovirus infected Sf9 cells using SAMS peptide as substrate at 100 uM incubated for 60 mins by ADP-Glo luminescence assay relative to control
T1 sequence (P54619 whole entry): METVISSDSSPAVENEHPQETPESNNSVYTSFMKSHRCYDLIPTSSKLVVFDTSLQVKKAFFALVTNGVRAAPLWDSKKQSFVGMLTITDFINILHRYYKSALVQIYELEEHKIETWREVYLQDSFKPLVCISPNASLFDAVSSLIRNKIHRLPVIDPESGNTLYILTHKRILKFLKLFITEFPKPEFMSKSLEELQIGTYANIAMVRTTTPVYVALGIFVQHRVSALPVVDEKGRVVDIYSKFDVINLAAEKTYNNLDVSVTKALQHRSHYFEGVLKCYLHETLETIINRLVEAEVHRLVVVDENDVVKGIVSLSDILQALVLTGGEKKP
T1 sequence (Q13131 whole entry partner): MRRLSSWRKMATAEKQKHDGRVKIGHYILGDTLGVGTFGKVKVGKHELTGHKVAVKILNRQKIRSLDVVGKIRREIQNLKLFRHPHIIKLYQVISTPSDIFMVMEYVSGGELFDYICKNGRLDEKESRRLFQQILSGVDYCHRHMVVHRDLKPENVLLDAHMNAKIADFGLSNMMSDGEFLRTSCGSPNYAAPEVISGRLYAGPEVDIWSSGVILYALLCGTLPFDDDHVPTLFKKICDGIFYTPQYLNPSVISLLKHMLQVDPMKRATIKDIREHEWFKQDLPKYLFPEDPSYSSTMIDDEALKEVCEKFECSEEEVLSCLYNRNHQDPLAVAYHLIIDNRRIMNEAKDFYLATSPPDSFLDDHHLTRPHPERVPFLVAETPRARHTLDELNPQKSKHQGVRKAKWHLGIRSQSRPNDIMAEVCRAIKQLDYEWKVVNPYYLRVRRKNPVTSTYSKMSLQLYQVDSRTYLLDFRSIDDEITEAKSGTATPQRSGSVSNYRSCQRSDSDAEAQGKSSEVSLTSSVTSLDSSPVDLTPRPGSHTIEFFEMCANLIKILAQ
T1 sequence (Q9Y478 2-270 partner limits assumed): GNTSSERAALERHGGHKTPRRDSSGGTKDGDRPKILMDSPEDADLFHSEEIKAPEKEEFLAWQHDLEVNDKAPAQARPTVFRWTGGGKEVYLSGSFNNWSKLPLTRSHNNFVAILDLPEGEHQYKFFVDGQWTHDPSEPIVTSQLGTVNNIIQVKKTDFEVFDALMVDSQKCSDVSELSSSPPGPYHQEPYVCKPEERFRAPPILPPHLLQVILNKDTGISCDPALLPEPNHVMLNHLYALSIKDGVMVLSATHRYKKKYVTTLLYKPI

[4] = system: Platelet; assay: Antiplatelet activity in rabbit platelet rich plasma assessed as inhibition of ADP-induced platelet aggregation at 100 uM relative to control; type: functional, Oryctolagus cuniculus; parameters: scale not given: the % may be the effect or the level left
[5] = Ratio of antiplatelet activity for test compound to antiplatelet activity for acetylsalicylic acid in rabbit platelet rich plasma assessed as inhibition of ADP-induced platelet aggregation at 100 uM; type: functional, Oryctolagus cuniculus
[6] = Solubility of the compound in PBS at pH 7.4; type: physicochemical
[7] = biological target: T2, AMP-activated protein kinase (AMPK) alpha-1/beta-1/gamma-1 (Homo sapiens, UniProt P54619+Q13131+Q9Y478); assay: (§1) Activation of C-terminal His tagged human recombinant full length AMPK alpha1/beta1/gamma1 expressed in baculovirus infected Sf9 cells using SAMS peptide as substrate incubated for 60 mins by ADP-Glo luminescence assay
T2 sequence (P54619 whole entry): as the sequence (P54619 whole entry) above
T2 sequence (Q9Y478 whole entry): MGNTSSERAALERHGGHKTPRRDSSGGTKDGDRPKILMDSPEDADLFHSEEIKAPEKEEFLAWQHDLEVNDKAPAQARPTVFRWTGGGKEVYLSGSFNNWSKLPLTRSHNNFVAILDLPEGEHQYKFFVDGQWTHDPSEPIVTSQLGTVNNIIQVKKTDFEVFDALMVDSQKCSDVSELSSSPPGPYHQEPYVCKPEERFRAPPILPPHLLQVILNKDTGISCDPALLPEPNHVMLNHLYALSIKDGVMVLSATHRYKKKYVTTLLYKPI
T2 sequence (Q13131 whole entry): as the sequence (Q13131 whole entry partner) above

[8] = biological target: T1, AMP-activated protein kinase (AMPK) alpha-1/beta-1/gamma-1 (Homo sapiens); assay: Activation of C-terminal His tagged human recombinant full length AMPK alpha1/beta1/gamma1 expressed in baculovirus infected Sf9 cells assessed as enzyme activation using SAMS peptide as substrate at 100 uM incubated for 60 mins by ADP-Glo luminescence assay relative to control
[9] = system: Peritoneal macrophage; assay: Anti-inflammatory activity in mouse peritoneal macrophages assessed as inhibition of LPS-induced NO production incubated for 22 hrs by Griess reagent based colorimetric assay; type: functional, cell-based
[10] = system: Peritoneal macrophage; assay: Cytotoxicity against mouse peritoneal macrophages up to 50 uM incubated for 24 hrs by MTT assay; type: cell-based
[11] = system: Peritoneal macrophage; assay: Cytotoxicity against mouse peritoneal macrophages up to 50 uM incubated for 24 hrs by neutral red assay; type: cell-based
[12] = biological target: T2, AMP-activated protein kinase (AMPK) alpha-1/beta-1/gamma-1; assay: Activation of human AMPK alpha1/beta1/gamma1 expressed in baculovirus/Sf9 cells using SAMS peptide as substrate incubated for 15 mins by in presence of 33P-ATP by liquid scintillation counting method
[13] = Inhibition of AGE formation assessed as reduction in reduction in bovin serum albumin glycation incubated for 24 hrs in presence of glucose, Cu2+ by spectrophotometric analysis; type: functional
[14] = Inhibition of AGE formation assessed as reduction in reduction in bovin serum albumin glycation at 1 mM incubated for 24 hrs in presence of glucose, Cu2+ by spectrophotometric analysis relative to control; type: functional
[15] = Inhibition of AGE formation assessed as reduction in reduction in bovin serum albumin glycation incubated for 24 hrs in presence of glucose by spectrophotometric analysis; type: functional
[16] = Ratio of inhibition of formation in AGE for test compound to inhibition of formation in AGE for aminoguanidine at 1 mM incubated for 24 hrs in presence of glucose by spectrophotometric analysis
[17] = Binding affinity to glyoxal assessed as reduction in glyoxal by GirardT reagent based spectrophotometric method
[18] = biological target: T1, AMP-activated protein kinase (AMPK) alpha-1/beta-1/gamma-1 (Homo sapiens); assay: as §1
[19] = biological target: AMP-activated protein kinase, AMPK; assay: Activation of recombinant human AMPK expressed in Sf9 cells using SAMS peptide as substrate preincubated for 30 mins followed by substrate addition and measured after 60 mins by fluorescence based assay
[20] = biological target: 5'-AMP-activated protein kinase; assay: Activation of recombinant mouse AMPK expressed in Sf9 cells using SAMS peptide as substrate preincubated for 30 mins followed by substrate addition and measured after 60 mins by fluorescence based assay
[21] = Activation of recombinant rhesus monkey AMPK expressed in Sf9 cells using SAMS peptide as substrate preincubated for 30 mins followed by substrate addition and measured after 60 mins by fluorescence based assay; parameters: species or system Macaca mulatta

Compound	inhibition [1]	Activity [2]	Activity [3]	Activity [4]	Ratio [5]	other results
Br.COC(=O)c1ccccc1-c1ccc(CN2C3=NCCCCN3c3ccccc32)cc1	17.9%	33.3%	-11.3%	97.4%	2.1 - 3.6	
Br.N#Cc1ccccc1-c1ccc(CN2C3=NCCCN3c3ccccc32)cc1	-9.2%	40.4%	197%			solubility [6]: > 500 µM; EC50 ([7]; read-out: EC50): 0.34 µM; fold change (FC) [8]: 2.81; IC50 [9]: 4.96 µM; Activity [10]: Non-Toxic; Activity [11]: Non-Toxic
COC(=O)c1ccccc1-c1ccc(CN2C3=NCCN3c3ccccc32)cc1	0.4%	-5.7%	3.5%			
Br.c1ccc(-c2ccc(CN3C4=NCCCN4c4ccccc43)cc2)cc1	9.9%	14.6%	16%	95.2%	2.1 - 3.6	
COC(=O)c1ccccc1-c1ccc(CN2C3=NCCCN3c3ccccc32)cc1	14.9%	5.9%	21.7%			
Br.c1ccc(-c2ccc(CN3C4=NCCN4c4ccccc43)cc2)cc1	22.5%	5.2%	54.2%	89.2%	2.1 - 3.6	
Br.c1ccc(-c2ccc(CN3C4=NCCCCN4c4ccccc43)cc2)cc1		13.5%	12.3%	98.7%	2.1 - 3.6	
CC(=O)Oc1ccccc1C(=O)O [ASPIRIN]				27.8%		
O=C(O)c1ccccc1-c1ccc(CN2C3=NCCN3c3ccccc32)cc1	7.7%	-1.7%	6.9%			
N#Cc1c(O)c2c(-c3ccc(-c4ccccc4O)cc3)csc2[nH]c1=O						EC50 [12]: 0.8 µM
CCCCc1nc(Cl)c(CO)n1Cc1ccc(-c2ccccc2-c2nnn[nH]2)cc1 [LOSARTAN]	51.4%	99%				IC50 ([13]; read-out: IC50): 782 µM; inhibition [14]: 51.4%; IC50 [15]: > 1000 µM
O=C(O)c1ccccc1-c1ccc(CN2C3=NCCCN3c3ccccc32)cc1	38.5%	7.5%	-16.2%			
Br.N#Cc1ccc(C(=O)CN2C3=NCCN3c3ccccc32)cc1	72.1%	0%	25.5%	6.6%		IC50 ([13]; read-out: IC50): > 1000 µM; inhibition [14]: 25.4%; Ratio [16]: 1.8; Activity [17]: Active; solubility [6]: > 500 µM; pEC50 [18]: inactive; IC50 [15]: 422 µM; fold change (FC) [8]: inactive
Cc1ccc(OCCSc2ncccn2)c(Br)c1			157%			EC50 ([7]; read-out: EC50): 0.55 µM
N=C(N)NN [PIMAGEDINE]	57.8%					IC50 [13]: Not Active; Activity [17]: Active; IC50 [15]: 765 µM
C[C@@H]1C[C@H]2[C@@H]3CCC4=CC(=O)C=C[C@]4(C)[C@@]3(F)[C@@H](O)C[C@]2(C)[C@@]1(O)C(=O)CO [DEXAMETHASONE]						IC50 [9]: 0.15 µM
Br.CCOC(=O)c1ccc(CN2C3=NCCN3c3ccccc32)cc1	17.5%	5.6%	0.6%	76.3%	2.1 - 3.6	
Br.O=C(O)c1ccc(CN2C3=NCCN3c3ccccc32)cc1	19.2%	11.1%	3.7%	57%	2.1 - 3.6	
Br.N#Cc1ccccc1-c1ccc(CN2C3=NCCN3c3ccccc32)cc1	8.6%	21.9%	163%	57.1%	2.1 - 3.6	solubility [6]: > 500 µM; EC50 ([7]; read-out: EC50): 109 µM; EC50 ([7]; read-out: pEC50 (converted)): 25.1 µM; fold change (FC) [8]: 1.56; IC50 [9]: 5.32 µM
O[C@@H]1CO[C@H]2[C@@H]1OC[C@H]2Oc1nc2nc(-c3ccc(-c4ccccc4)cc3)c(Cl)cc2[nH]1						EC50 [19]: 0.001 to 0.06 µM; EC50 [20]: 0.001 to 0.06 µM; EC50 [21]: 0.001 to 0.06 µM
Br.N#Cc1ccccc1-c1ccc(CN2C3=NCCCCN3c3ccccc32)cc1		0%	293%			solubility [6]: > 500 µM; EC50 ([7]; read-out: EC50): 0.44 µM; fold change (FC) [8]: 4; Activity [10]: Non-Toxic; Activity [11]: Non-Toxic
O=C(O)c1ccccc1-c1ccc(CN2C3=NCCCCN3c3ccccc32)cc1	30.8%	20%	-36.4%			
